What all share (test): growth of human tumour cells (NCI), 48 h
Assay [1] relates to M19-MEL melanoma.
Assay [2] relates to RXF-631 renal.
The test system of assay [3] is DMS 114 small cell lung.
Assay [4] deals with KM20L2 colon.
For assay [5], the system named is SNB-78 CNS.
Assay [6] relates to HOP-18 NSCLC.
Assay [7] has as its system XF 498 CNS.
For assay [8], the system named is DMS 273 small cell lung.
Assay [9] relates to MDA-N.

Several values for one entry are separate records, joined by “and”; a condition that tells them apart may be missing. Equal entries are not always repeated.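 A five-concentration, 48-hour dose response in 96-well plates underlies each endpoint, interpolated linearly between surrounding concentrations. GI50 = concentration required for 50% inhibition of growth. The concentration for full growth arrest is given as TGI.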 A value given as a limit tells only on which side of the number the result lay.

For the molecule `O=C1c2ccccc2C(=O)C12CCc1ccccc12`, the TGI in assay [1], in assay [2], in assay [3], in [4], in assay [5] and in assay [6] was above 100 µM each time. Further, the TGI in assay [7] and in assay [8] was above 100 µM throughout.

As for `COc1ccc(/C=C2\CCC(CCN(C)C)(C3=CCCC3)C2=O)cc1` (stereo not given), the TGI in assay [1] came to 28.4 µM; in [3] it was 31.2 µM; in assay [4], 28.3 µM; in assay [5] it was 56.2 µM; in assay [6], 66.5 µM; in assay [8], 31.1 µM.

As to `CC1(C)COC2C(N(Cc3ccccc3)Cc3ccccc3)C(=O)N21` (stereo not given), the TGI in [1], in assay [4], in [5] and in [6] was above 100 µM in each case.

`CC12CC(=O)Nc3ccccc3N1C(c1ccccc1)=NO2` (stereo not given) showed a TGI in [9] above 100 µM.

As to `COC(=O)C(=O)C(CC(=O)Nc1ccc(C)cc1)C(=O)OC` (stereo not given), the TGI in [1], in [2], in [3], in assay [4], in [5] and in assay [6] was above 100 µM in each case. This molecule also returned a TGI in assay [7] above 100 µM.

For `COc1cccc(-c2cc(=O)c3cc4c(cc3[nH]2)OCO4)c1`, the TGI in [1] was above 100 µM; in [2], above 100 µM; in assay [3] it was above 100 µM; in assay [5], above 100 µM; in assay [6], above 100 µM; in assay [7], 2.59 µM.

`CSc1ncnc2c1ncn2CC(=O)C1CCC2C3CCC4=CC(=O)CCC4(C)C3CCC12C` (stereo not given) yielded a TGI in [9] of 12.4 µM.

For `O=C1CCC2(c3ccccc3)Nc3ccccc3N12` (stereo not given), the TGI in [1], in assay [2], in [3], in assay [4], in assay [5] and in assay [7] was above 100 µM each time.

For the molecule `COC(=O)C(C(=O)C(=O)Nc1ccc(C)cc1C)c1csc(-n2nc(-c3ccccc3)cc2-c2ccccc2)n1` (stereo not given), the TGI in assay [1], in assay [2], in [3], in assay [4], in assay [5] and in [6] was above 100 µM in each case. In addition, the TGI in [7] and in assay [8] was above 100 µM throughout.

In assay [9], `C=CC(C)(C)n1cc(C2=C(O)C(=O)C(c3cn(C(C)(C)C=C)c4ccccc34)=C(O)C2=O)c2ccccc21` gave a TGI of 4.98 µM.

Regarding `CCCC(=O)N[C@H]1CCc2cc(OC)c(OC)c(OC)c2-c2ccc(SC)c(=O)cc21`, the TGI in assay [9] is below 0.01 µM; in assay [1], above 100 µM; in assay [2], 1.42 µM; in assay [3] it was below 0.01 µM; in assay [4] it was below 0.01 µM; in [5] it was above 100 µM. For the same molecule, the TGI in [6] and in [8] was above 100 µM each time.

As to `C=C1C(=O)C23[C@H](O)C1CC[C@H]2[C@]12COC3(O)[C@@H](O)[C@@H]1C(C)(C)CC[C@@H]2O`, the TGI was found to be 26.3 µM in assay [1]; 22.7 µM in [2]; 21.3 µM in assay [3]; 28.3 µM in [4]; 16.4 µM in assay [5]; 24.6 µM in assay [6]. In addition, the TGI in [7] stood at 9.82 µM; in assay [8] it was 27.3 µM.

Take `C#CCN(N=O)C(=O)ON1C(=O)CCC1=O`: the TGI in [1], in assay [3], in [4], in assay [5], in assay [6] and in [8] was above 100 µM each time.

As to `CC1CC2(S(=O)(=O)c3ccccc3)ON1CC2S(=O)(=O)c1ccccc1` (stereo not given), the TGI in [1], in assay [2], in [3], in [4], in [7] and in [8] was above 100 µM in each case.

Take `CC(Oc1ccc(Oc2cnc3ccc(Cl)cc3n2)cc1)C(=O)O` (stereo not given): the TGI in [9], in assay [1], in assay [3], in assay [4], in [5] and in [6] was above 100 µM in each case. Moreover, the TGI in assay [7] and in assay [8] was above 100 µM throughout.

In the case of `O=C1/C(=C\c2ccco2)Oc2ccccc21`, in assay [9], the TGI is above 100 µM.

Consider `CN(C)C(=S)/N=c1\ssc(=S)n1C`, for which the TGI in assay [1], in [2], in [3], in assay [4], in assay [5] and in assay [6] was above 100 µM in each case. Besides, the TGI in assay [7] and in [8] was above 100 µM in each case.

For the molecule `CC(=O)c1ccc(NC(=O)C(=O)C(C(=O)/C=C/c2ccccc2)C2OC(=O)c3ccccc32)cc1` (stereo not given), the TGI in [1], in [2], in assay [4], in assay [5], in assay [6] and in assay [7] was above 100 µM each time. Further, the TGI in assay [8] was above 100 µM.

In the case of `CC(=O)NC1(NC(C)=O)C2CC(C1Cc1ccccc1)C(C)(C)C2C` (stereo not given), in assay [9], the TGI was above 100 µM.

With `C[N+](C)(C)CC1CCCCC1=O` (stereo not given), the TGI in assay [1] is 35.2 µM; in [3], above 100 µM; in assay [4], 4.65 µM; in assay [6], 30.4 µM; in assay [8], above 100 µM.

Consider `N=c1c2ccccc2sc2nc3ccccc3n12`, for which the TGI in assay [1], in assay [3], in assay [5], in [6], in assay [7] and in assay [8] was above 100 µM throughout.

Molecule `O=[N+]([O-])c1cc([As](Br)c2ccc(O)c([N+](=O)[O-])c2)ccc1O` showed a TGI in [9] of 3.4 µM.

`O=c1cc(-c2ccccc2)[nH]c2cc(F)cc(F)c12`: the TGI in assay [1] is above 100 µM; in assay [3] it was 93.2 µM; in [6], above 100 µM; in assay [8], above 100 µM.

For `COc1ccc(/C=C(\NC(=O)c2ccccc2)c2nc3ccccc3[nH]2)cc1OC`, the TGI in [1], in assay [2], in assay [3], in assay [4], in [5] and in assay [6] was above 100 µM each time. In addition, the TGI in assay [7] is above 100 µM.

Turning to `CC(=O)OC(C(=O)[O][Sn]([CH3])([CH3])[CH3])c1ccccc1` (stereo not given), the GI50 in [1], in [2], in [3], in [4], in assay [5] and in [6] was above 100 µM throughout. The TGI in [1], in [2], in [3], in assay [4], in assay [5] and in [6] was above 100 µM each time.

Turning to `CC1(C)OC(=S)N(c2ccccc2)C12C=Cc1cc3ccccc3nc1S2` (stereo not given), the TGI in assay [1], in [3], in assay [4], in assay [7] and in assay [8] was above 100 µM throughout.

`COc1ccc2c(c1)CN([C@@H](C)[C@H]1CC[C@H]3[C@@H]4CC[C@H]5C[C@@H](O)CC[C@]5(C)[C@H]4CC[C@]13C)CO2`: the TGI in [9] was 3.38 µM.

Take `COC/N=C(\NC#N)NCOC`: the TGI was above 100 µM in [1]; above 100 µM in [2]; above 72.5 µM in assay [3]; above 100 µM in assay [4]; above 100 µM in assay [6]; above 100 µM in assay [7]. The molecule further showed a TGI in assay [8] above 81.5 µM.

On to `Clc1ccccc1CN1COc2c(ccc3cccnc23)C1`, for which the TGI in assay [1] is 15.1 µM; in [3] it was 6.19 µM; in [4], 35.9 µM; in [5], 14 µM; in [7], 22.4 µM; in [8], 11.1 µM.

In the case of `COc1ccc(/C=C2/C(=O)N(C(=O)c3ccccc3O)N=C2C)cc1`, the TGI in assay [9] was above 100 µM; in [1], above 100 µM; in assay [3], 2.25 µM; in assay [4], above 100 µM; in [7], above 100 µM.

On to `CCOc1cccc2c1N[S@@](=O)S2`, for which the TGI in [1], in assay [2], in assay [4], in [5], in assay [7] and in assay [8] was above 100 µM in each case.

Molecule `CCCc1nc(Cl)nc(Cl)c1Cl` came in with a TGI in [9] of 0.398 µM.

On to `O=c1c2c(-c3ccccc3)c3ccccc3nc2cnn1-c1ccccc1`, for which the TGI in [1], in assay [3], in assay [4], in [5], in assay [6] and in assay [8] was above 100 µM in each case.

On to `COc1cc(C(=O)N[C@H]2CCc3cc(OC)c(OC)c(OC)c3-c3ccc(SC)c(=O)cc32)cc(OC)c1OC`, for which the GI50 in assay [1] was 0.0156 µM. Also, the TGI in assay [1] was 25 µM and > 100 µM; in assay [2], above 100 µM; in assay [3], 0.144 µM; in [8], above 100 µM.

With `Nc1nc(N)c2cc(Sc3ccc4ccccc4c3)ccc2n1`, in [9], the TGI was found to be 4.66 µM.

Take `CO[C@H]1/C=C/O[C@@]2(C)Oc3c(C)c(O)c4c(O)c(c(/C=N/N5CCN(C)CC5)c(O)c4c3C2=O)NC(=O)/C(C)=C\C=C\[C@H](C)[C@H](O)[C@@H](C)[C@@H](O)[C@@H](C)[C@H](OC(C)=O)[C@@H]1C`: the TGI in assay [9] was above 100 µM.

`CCC(=O)N/S(=N/S(=O)(=O)c1ccccc1)C(Cl)(Cl)Cl` (stereo not given) came in with a TGI in [9] above 100 µM.

In the case of `CC(/C=C/C(O)=C1/C(=O)CNC1=O)=C\[C@@H](C)[C@H]1O[C@@]2(C)O[C@H](C(=O)[C@@H]3O[C@@]32C)[C@@H]1C`, the TGI in assay [9] was above 100 µM.

Turning to `COc1ccc(O)c(C(=O)CCC(=O)O)c1`, the TGI in [1], in assay [2], in assay [3], in assay [5], in [7] and in [8] was above 100 µM throughout.

As to `CCOP(=O)(OCC)/C(C#N)=C/c1ccccn1`, in [9], the TGI is above 100 µM.

In the case of `CCOc1ccc(N=C(NC(=O)c2ccccc2)SC)cc1`, the TGI in assay [1], in [3], in assay [4], in [5], in [6] and in assay [8] was above 100 µM in each case.

Values taken from PubChem BioAssay (NCI).
